Experimental data taken from ChEMBL document CHEMBL1138587, “A new class of 5-HT2B antagonists possesses favorable potency, selectivity, and rat pharmacokinetic properties” (Bioorg Med Chem Lett, 2009).
Converted amounts (≈) assume the structure as drawn. The source made the active and inactive calls. The rule behind the calls is not given here.

Columns and labels:
[1] = molecular target: T1, 5-hydroxytryptamine receptor 2B (Homo sapiens, UniProt P41595); assay: Antagonist activity at 5-HT2B receptor expressed in CHOK1 cells assessed as inhibition of serotonin-induced intracellular Ca2+ flux by aequorin luminescence assay in presence of 4% human serum albumin; format: functional, cell-based, CHO-K1
[2] = molecular target: T1, 5-hydroxytryptamine receptor 2B; assay: Antagonist activity at 5-HT2B receptor expressed in CHOK1 cells assessed as inhibition of serotonin-induced intracellular Ca2+ flux by aequorin luminescence assay; format: functional, cell-based, CHO-K1
[3] = AUC in Sprague-Dawley rat at 10 mg/kg, po; format: ADME, organism-based; parameters: dose 10 mg/kg, route oral; settings: plasma
[4] = Oral bioavailability in Sprague-Dawley rat; format: ADME, organism-based; settings: in vivo
[5] = Cmax in Sprague-Dawley rat 10 mg/kg, po; format: ADME, organism-based; parameters: dose 10 mg/kg, route oral; settings: in vivo
[6] = Selectivity for 5-HT2B receptor over 5-HT2A receptor
Rattus norvegicus = assay: Hepatic blood flow in Wistar rat at 1 mg/kg, iv; format: ADME, organism-based, Liver; parameters: dose 1 mg/kg, route intravenous; settings: in vivo
[7] = AUC in Wistar rat at 10 mg/kg, po; format: ADME, organism-based; parameters: dose 10 mg/kg, route oral; settings: plasma
[8] = Cmax in Wistar rat 10 mg/kg, po; format: ADME, organism-based; parameters: dose 10 mg/kg, route oral; settings: in vivo
[9] = Selectivity for 5-HT2B receptor over 5-HT2C receptor
[10] = Oral bioavailability in Wistar rat; format: ADME, organism-based; settings: in vivo
[11] = Protein binding in plasma by dialysis method; format: ADME, cell-free; settings: read-out: PPB (converted)
[12] = Inhibition of dopamine D4.2 receptor at 10 uM
[13] = molecular target: T2, 5-hydroxytryptamine receptor 2C (Homo sapiens) (UniProt P28335); assay: Antagonist activity at 5-HT2C receptor up to 10 uM by FLIPR assay; format: functional
T2 sequence (whole entry): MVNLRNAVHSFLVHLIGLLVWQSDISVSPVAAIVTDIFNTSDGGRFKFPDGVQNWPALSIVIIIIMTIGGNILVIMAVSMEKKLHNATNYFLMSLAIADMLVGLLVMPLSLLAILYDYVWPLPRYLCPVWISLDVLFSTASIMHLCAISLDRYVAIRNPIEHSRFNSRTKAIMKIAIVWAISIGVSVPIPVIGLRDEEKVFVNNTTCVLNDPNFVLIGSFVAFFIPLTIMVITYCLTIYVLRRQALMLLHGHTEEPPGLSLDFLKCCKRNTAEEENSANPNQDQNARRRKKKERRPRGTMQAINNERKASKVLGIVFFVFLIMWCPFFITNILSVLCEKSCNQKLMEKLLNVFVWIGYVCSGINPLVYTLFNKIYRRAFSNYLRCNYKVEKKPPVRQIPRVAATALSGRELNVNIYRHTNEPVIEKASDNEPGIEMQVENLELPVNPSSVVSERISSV

[14] = molecular target: 5-hydroxytryptamine receptor 2A (Homo sapiens) (UniProt P28223); assay: Antagonist activity at 5-HT2A receptor up to 10 uM by FLIPR assay; format: functional
[15] = Aqueous solubility of compound at pH 7.4; format: physicochemical; settings: aqueous medium

T1 sequence (P41595 whole entry): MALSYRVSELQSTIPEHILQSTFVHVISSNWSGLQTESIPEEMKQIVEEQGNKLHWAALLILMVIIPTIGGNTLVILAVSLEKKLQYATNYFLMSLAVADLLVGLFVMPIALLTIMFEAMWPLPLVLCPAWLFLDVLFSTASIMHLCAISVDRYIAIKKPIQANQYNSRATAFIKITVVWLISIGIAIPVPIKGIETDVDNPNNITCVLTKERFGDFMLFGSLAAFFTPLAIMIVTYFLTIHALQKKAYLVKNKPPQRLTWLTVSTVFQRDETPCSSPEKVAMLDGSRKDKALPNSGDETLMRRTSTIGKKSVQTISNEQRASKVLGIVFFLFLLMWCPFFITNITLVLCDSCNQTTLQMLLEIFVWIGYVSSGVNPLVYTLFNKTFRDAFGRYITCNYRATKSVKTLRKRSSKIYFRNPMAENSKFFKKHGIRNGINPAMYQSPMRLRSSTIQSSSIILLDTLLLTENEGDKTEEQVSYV
5-hydroxytryptamine receptor 2A (Homo sapiens), sequence (P28223 whole entry): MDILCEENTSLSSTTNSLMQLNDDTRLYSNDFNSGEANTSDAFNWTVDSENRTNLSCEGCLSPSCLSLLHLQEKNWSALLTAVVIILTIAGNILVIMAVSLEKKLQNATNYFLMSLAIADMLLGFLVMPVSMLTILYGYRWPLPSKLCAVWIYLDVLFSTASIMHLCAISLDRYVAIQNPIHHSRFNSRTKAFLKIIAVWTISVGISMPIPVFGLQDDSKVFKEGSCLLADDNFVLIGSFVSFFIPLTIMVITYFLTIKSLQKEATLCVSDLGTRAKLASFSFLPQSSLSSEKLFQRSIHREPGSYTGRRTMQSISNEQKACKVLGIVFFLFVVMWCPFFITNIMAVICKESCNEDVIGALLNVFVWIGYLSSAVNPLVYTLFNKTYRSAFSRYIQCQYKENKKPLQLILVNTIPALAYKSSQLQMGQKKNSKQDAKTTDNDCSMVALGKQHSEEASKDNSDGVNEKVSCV

IC50 [1] [nM]	IC50 [2] [nM]	Compound	other results
> 26000	> 13000	O=C(c1ccc(Br)cc1)N1CCC(c2nc3ccccc3[nH]2)CC1	
> 26000	2300	O=C(c1ccc(N2CCOCC2)cc1)N1CCC(c2nc3ccccc3[nH]2)CC1	
300	2.3	O=C(c1ccc(-c2ccccc2)cc1)N1CCC(Cc2nc3ccccc3[nH]2)CC1	
32	0.3	O=S(=O)(c1ccc(-c2ccccc2)cc1)N1CCC(c2ncc[nH]2)CC1	
19	0.7	CC(C)c1cc(-c2ccc(F)c3ccccc23)nc(N)n1	Selectivity ratio [6]: 2000; QH (Rattus norvegicus): 29%; AUC [7]: 810 ng·h/mL; Cmax [8]: 470 ng/mL; Selectivity ratio [9]: 92; bioavailability [10]: 10%; fraction unbound [11]: 0.001
840	1.9	O=S(=O)(c1ccc(-c2ccccc2)cc1)N1CCC(c2nc3ccccc3[nH]2)CC1	
30	0.6	O=S(=O)(c1ccc(-c2ccc(F)cc2)cc1)N1CCC(c2ncc[nH]2)CC1	AUC [3]: 2300 ng·h/mL; bioavailability [4]: 54%; Cmax [5]: 870 ng/mL
710	2.5	O=C(c1cnc(-c2ccccc2)nc1)N1CCC(c2nc3ccccc3[nH]2)CC1	fraction unbound [11]: 0.009
> 20000	610	O=C(C1CCC(c2ccccc2)CC1)N1CCC(c2nc3ccccc3[nH]2)CC1 (centres undefined)	
1100	31	O=C(c1ccc(C2CCCCC2)cc1)N1CCC(c2nc3ccccc3[nH]2)CC1	
> 23000	1100	O=S(=O)(c1ccc(-c2ccccc2)cc1)N1CCC(Cc2nc3ccccc3[nH]2)CC1	
> 25000	6900	O=C(c1ccc(-c2ccccc2)cc1)N1CCN(c2nc3ccccc3[nH]2)CC1	
> 24000	> 2400	NC(=O)c1ccc(-c2ccc(C(=O)N3CCC(c4nc5ccccc5[nH]4)CC3)cc2)cc1	
14	0.4	O=C(c1ccc(-c2ccccc2)cc1)N1CCC(Cc2ncc[nH]2)CC1	
64	13	Cc1cc2c(cc1Cl)N(C(=O)Nc1cccc3ncccc13)CC2	Selectivity ratio [6]: 7; Selectivity ratio [9]: 0.5
	> 6500	NC(=O)C1CCN(C(=O)c2ccc(-c3ccccc3)cc2)CC1	

The remaining lines, values behind:

Compound	IC50 [1] [nM]	IC50 [2] [nM]	other results
O=C(c1ccc(N2CCCCC2)cc1)N1CCC(c2nc3ccccc3[nH]2)CC1	12000	48	
O=C(c1ccc(-c2ccccc2)cc1)N1CC(c2nc3ccccc3[nH]2)C1	> 2800	150	
O=C(c1ccc(-c2ccccc2)cc1)N1CCC(c2nc3ccccc3o2)CC1	> 20000	1500	
O=C(c1ccc(-c2ccc(F)cc2)cc1)N1CCC(c2ncc[nH]2)CC1			AUC [3]: 14000 ng·h/mL; bioavailability [4]: 100%; Cmax [5]: 1700 ng/mL
O=C(c1ccc(-c2ccncc2)cc1)N1CCC(c2nc3ccccc3[nH]2)CC1	> 13000	> 1300	
O=C(c1ccc(-c2ccccc2)cn1)N1CCC(c2nc3ccccc3[nH]2)CC1	> 2400	12	
O=C(c1ccccc1)N1CCC(c2nc3ccccc3[nH]2)CC1	> 10000	> 10000	
COc1ccc(-c2ccc(C(=O)N3CCC(c4nc5ccccc5[nH]4)CC3)cc2)cc1	3200	3.4	
O=C(c1ccc(-c2ncccn2)cc1)N1CCC(c2nc3ccccc3[nH]2)CC1	> 2700	120	
O=C(c1ccc(-c2ccc(OC(F)(F)F)cc2)cc1)N1CCC(c2nc3ccccc3[nH]2)CC1	16000	95	
O=C(c1ccc(-c2ccccc2)cc1)N1CCC(c2ncc[nH]2)CC1			fraction unbound [11]: 0.001
N#Cc1cc(CN2CCC(Nc3ncnc4sc(Cl)cc34)CC2)ccc1F [PRX-08066 FREE BASE]	270	3.5	Selectivity ratio [6]: > 3000; QH (Rattus norvegicus): 82%; AUC [7]: 500 ng·h/mL; Cmax [8]: 240 ng/mL; Selectivity ratio [9]: > 3000; bioavailability [10]: 17%; fraction unbound [11]: 0.01
O=C(c1ccc(-c2cccnc2)cc1)N1CCC(c2nc3ccccc3[nH]2)CC1	> 14000	340	
Cn1c(C2CCN(C(=O)c3ccc(-c4ccccc4)cc3)CC2)nc2ccccc21	10000	80	
O=C(c1ccc(-c2ccccc2)cc1)N1CCC(c2nc3ccccc3[nH]2)CC1	1200	2.4	Selectivity ratio [6]: > 10000; inhibition [12]: 99%; AUC [3]: 25000 ng·h/mL; bioavailability [4]: 130%; Activity [13]: inactive; Activity [14]: inactive; Selectivity ratio [9]: > 10000; Cmax [5]: 5000 ng/mL; solubility [15]: 3 µg/mL (≈ 7.86 µM); fraction unbound [11]: 0.001
O=C(c1ccc(-c2ccccc2)[nH]c1=O)N1CCC(c2nc3ccccc3[nH]2)CC1	> 3000	22	
O=S(=O)(c1ccc(-c2ccccc2)cc1)N1CCC(Cc2ncc[nH]2)CC1	990	6.5	
c1ccc(-c2ccc(CN3CCC(c4nc5ccccc5[nH]4)CC3)cc2)cc1	7300	65	
COc1cc(-c2ccccc2)ccc1C(=O)N1CCC(c2nc3ccccc3[nH]2)CC1	1200	4	
CCOc1nc(-c2ccccc2)ncc1C(=O)N1CCC(c2nc3ccccc3[nH]2)CC1	910	6	
O=C(c1ccc(-c2ccc(F)cc2)cc1)N1CCC(Cc2ncc[nH]2)CC1			AUC [3]: 6500 ng·h/mL; bioavailability [4]: 118%; Cmax [5]: 600 ng/mL
